Where two headings read alike, the source gives them in different places.
Key:
VIM-2 [1] = target: T1, VIM-2 (Escherichia coli, UniProt Q5U7L7); settings: cited from earlier work
NDM-1 [2] = target: T2, NDM-1 (Klebsiella pneumoniae, UniProt C7C422); settings: read-out: IC50 against NDM-1; cited from earlier work
[3] = read-out: Kd, affinity to zinc ions; cited from earlier work
VIM-2 [4] = target: T1, VIM-2; assay: Enzymatic metallo-β-lactamase assay on purified VIM-2; format: biochemical; settings: for Ki: approximated from Dixon plots (1/v vs [I]) at one constant substrate concentration, ± SE, read-out: Estimated inhibition constant Ki VIM-2; for logIC50 VIM-2: log of IC50, ± SEM of logIC50; for IC50: purified enzyme 1 nM, nitrocefin 15 μM, pH 7.2, 25 °C
Procedure: (§1) A few inhibitors were tested up to 1600 μM to ensure nearly complete inhibition. Solutions of 100 μL consisting of buffer, purified enzyme (1 nM for GIM-1 and VIM-2, 5 nM for NDM-1), inhibitor and reporter substrate nitrocefin (15 μM for VIM-2, 2 μM for GIM-1) or imipenem (30 μM for NDM-1) were incubated in triplicates on a 96 well plate for 5 min at 25 °C. Buffer solution consisted of 50 mM HEPES pH 7.2, 50 μM ZnSO4 and 0.4 mg/ml bovine serum albumine. Inhibitors were dissolved in DMSO but diluted to assure <2% DMSO in measured assay. Absorbance was measured at 482 nm (nitrocefin) and 300 nm (imipenem) on a SpectraMax M4 spectrophotometer. The initial velocity at each inhibitor concentration was analyzed in GraphPad Prism v9.3.1 and fitted to dose-response curves by non-linear regression (log [inhibitor] vs response) used to calculate IC50 (Supplementary Tables S2–5).

GIM-1 [5] = target: T3, GIM-1 (Pseudomonas aeruginosa, UniProt Q704V1); assay: Enzymatic metallo-β-lactamase assay on purified GIM-1; format: biochemical; settings: for logIC50 GIM-1: log of IC50, ± SEM of logIC50; for IC50: purified enzyme 1 nM, nitrocefin 2 μM, pH 7.2, 25 °C
T3 sequence (Q704V1 entry or part of it): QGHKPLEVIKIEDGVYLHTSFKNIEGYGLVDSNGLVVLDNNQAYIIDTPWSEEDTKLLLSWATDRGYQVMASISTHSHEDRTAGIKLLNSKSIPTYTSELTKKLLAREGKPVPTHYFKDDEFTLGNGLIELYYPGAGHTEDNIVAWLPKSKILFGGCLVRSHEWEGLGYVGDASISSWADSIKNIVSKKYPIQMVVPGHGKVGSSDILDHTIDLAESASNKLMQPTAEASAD
Procedure: as §1

NDM-1 [6] = target: T2, NDM-1; assay: Enzymatic metallo-β-lactamase assay on purified NDM-1; format: biochemical; settings: for Ki: approximated from Dixon plots (1/v vs [I]) at one constant substrate concentration, ± SE, read-out: Estimated inhibition constant Ki NDM-1; for logIC50 NDM-1: log of IC50, ± SEM of logIC50; for IC50: purified enzyme 5 nM, imipenem 30 μM, pH 7.2, 25 °C
Procedure: as §1

MTT cytotoxicity assay = format: cell-based; settings: human, HepG2 cells
Procedure: Cytotoxic activity of the compounds was measured through the MTT colorimetric assay as previously described[60] using the Colorimetric (MTT) Kit for Cell Survival and Proliferation (Merck/Millipore; Darmstadt, Germany). HepG2 cells (human hepatocellular carcinoma cell line) were kept in penicillin/streptomycin-free medium overnight and then they were treated with the compounds for 24 h. Subsequently, the MTT reagent was added to the cells and after 3 h of incubation, MTT-derived formazan crystals were solubilized in acidified isopropanol (0.1 mL isopropanol with 0.04 N HCl). Absorbance was measured with multiscan spectrophotometer (Thermo Fisher Scientific) at 530 nm test and 630 nm reference wavelengths. Cell viability was expressed as the percentage of viable, untreated cells. CC50 values were determined with GraphPad Prism software (v9.3.1) and adjusted to dose-response curves by non-linear regression (Supplementary Table S7).
8. Cytotoxocity against HepG2 cells
Table S7. CC50 values and viability curves of metallo-β-lactamase inhibitors tested on HepG2 […]
cells. […]
range. Data are shown as % via bility values ± SEM (n=4). Calculations were done using […]
Inhibitors CC50 (μM) HepG2 […]

[7] = Long term stability in buffer with 2.5% DMSO (LC-MS); format: physicochemical; settings: 20 mM KPO4, 0.1 mM ZnCl2, pH 7.0 + 2.5% DMSO; LC-MS 254 nm
Description: Reagents, reactants, solvents and drying agents for synthesis, work-up and purification were purchased from commercial vendors (Sigma-Aldrich, VWR, Merck, Fluorochem, Thermo Fisher Scientific, Solveco), and if not stated otherwise they were used without further purification. Reactions and long term stability of the final compounds in buffer were monitored using LC-MS (Agilent 1260 Infinity II) equipped with an ESI-Q detector (Infinitylab LC-MSD) using Agilent InfinityLab Poroshell 120 C18 columns (2.7 μm, ϕ 2.1 mm L 50 mm or 2.7 μm, ϕ 4.6 mm L 50 mm). The intermediates were purified using VWR silica gel 60 (40–63 μm) with a Biotage Isolera One flash column chromatography instrument. The final products were purified with preparative RP-HPLC (VWR LaPrep P110) with single wavelength detection (254 nm), using a Kinetex C8 column (5 μm, 100 Å, ϕ 21.2 mm L 250 mm) and gradients of CH3CN/H2O + 0.1% formic acid as the mobile phase at a 10 mL/min flow rate. Analytical HPLC data were acquired on a VWR LaChrome ELITE system using an ACE3 C8 (3 μm, 300 Å, ϕ 3.0 mm L 100 mm) or a Kinetex C18 columns (5 μm, 100 Å, ϕ 3.0 mm L 150 mm). NMR spectra were recorded on a Varian Agilent MR400-DD2 400 MHz spectrometer equipped with a OneNMR probe, Bruker Avance Neo 500 MHz spectrometer equipped with a cryogenic TXO probe, or a Bruker Avance Neo 600 MHz spectrometer equipped with a TCI cryogenic probe. The chemical shifts are reported using the residual solvent signal as an indirect reference to TMS.
4. Long term stability of the final compounds in buffer with 2.5% DMSO
The long term stability of the final compounds in buffer (20 mM KPO4, 0.1 mM ZnCl2, pH 7.0 + 2.5% DMSO) were monitored using LC-MS (Agilent 1260 Infinity II) equipped with an ESI-Q detector (Infinitylab LC-MSD) using Agilent InfinityLab Poroshell 120 C18 column (2.7 μm, ϕ 4.6 mm L 50 mm) at 254 nm with a 7 min long gradient method (5% to 95% CH3CN) of CH3CN/H2O + 0.1% formic acid as the mobile phase at a 1.0 mL/min flow rate. The samples were measured right after dissolving them in buffer, and after 1 month of keeping the same samples dissolved in the same buffer. The main peaks (> 95%) and impurities with > 1% are […]
Figure S14. Compound 5a right after dissolving it in buffer.
Figure S15. Compound 5a kept in buffer for 1 month. […]

15N-labelled VIM-2 = target: T4, 15N-labelled VIM-2 (Escherichia coli, UniProt Q5U7L7); assay: 1H,15N-HSQC titration of VIM-2; format: binding; settings: 10 equivalents of compound, 600 MHz, pH 7.0, 25 °C
T4 construct: made in house
Procedure: (§2) The ^1H, ^15N-HSQC spectra for the titration experiments were recorded on a Bruker Avance Neo 600 MHz spectrometer equipped with a 5 mm TCI cryogenic probe at 25 °C. The U-[^15N]-labeled VIM-2 was prepared in a buffer of 20 mM KPO4, 0.1 mM ZnCl2, at pH 7.0, containing 85% H2O/15% D2O at a concentration of 0.25 mM. The U-[^15N]-labeled NDM-1 was used in a buffer of 20 mM HEPES, 0.1 mM ZnCl2, at pH 7.0, containing 85% H2O/15% D2O at a concentration of 0.25 mM. The ligands 5d, 5g, 5i, 5j (for VIM-2 titrations) and 5 f (for NDM-1 titration) were dissolved in the same buffer as the corresponding enzymes. Spectra were recorded using solvent suppression, 1024 points in f1, 16 transients, 512 increments in f2 and a relaxation delay of 0.2 s. The titrations were carried out with 0, 0.25, 0.50, 1.00, 1.50, 2.25, 3.00, 4.00, 5.00, 7.00, 10.0 equivalents of the inhibitors.
Figure S47. Superimposition of the 1H,15N-HSQC spectrum (600 MHz, pH 7.0, 25 °C) of
VIM-2 in the absence (blue) and in the presence (green) of 10 molar equivalent of compound
5j. Buffer: 20 mM KPO4, 0.1 mM ZnCl2, with 15% D2O.
(§3) Chemical shift perturbation values (CSP, ΔδNH) were calculated as the weighted average of
(§4) the chemical shift changes in f1 (ΔδN) and f2 (ΔδH) dimensions using the following equation 8:
∆δ = √∆δ 2 + ( N ); R = 6.5
Figure S48. Linear regression of the chemical shift perturbations of compound 5g (IC50 =
12 μM) as a function of the chemical shift perturbations of compounds 5c (yellow circle), 5d
(grey square), 5i (green triangle) and 5j (blue circle) for VIM-2. The data of the studied […]

GIM-1 [8] = target: T3, GIM-1; assay: Enzymatic metallo-β-lactamase assay on purified GIM-1; format: biochemical; settings: approximated from Dixon plots (1/v vs [I]) at one constant substrate concentration; ± SE; read-out: Estimated inhibition constant Ki GIM-1
15N-labeled NDM-1 = target: T5, 15N-labeled NDM-1 (Klebsiella pneumoniae, UniProt C7C422); assay: 1H,15N-HSQC titration of NDM-1; format: binding; settings: 10 equivalents of compound, 600 MHz, pH 7.0, 25 °C
T5 construct: made in house
T5 sequence (C7C422 29-270, looked up): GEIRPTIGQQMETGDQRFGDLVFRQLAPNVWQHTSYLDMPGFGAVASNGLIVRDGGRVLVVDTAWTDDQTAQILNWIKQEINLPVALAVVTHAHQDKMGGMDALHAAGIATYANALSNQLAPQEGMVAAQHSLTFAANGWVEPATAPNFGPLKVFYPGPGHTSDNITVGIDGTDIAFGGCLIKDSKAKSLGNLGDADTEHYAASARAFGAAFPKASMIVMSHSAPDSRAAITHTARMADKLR
Procedure: as §2, with “inhibitors. […]” for “inhibitors.”
as §3, §4
∆δ = √∆δ 2 + ( N ); R = 6.5 […]

[9] = HepG2, MTT, read-out: CC50 (in viability curve)
[10] = MTT, 0.0025 mM - 1mM concentration range, read-out: Cytotoxicity CC50 HepG2

T2 sequence (C7C422 29-270, looked up, species assumed): as the sequence (C7C422 29-270, looked up) above

| SMILES | IC50 (VIM-2 [1]; read-out: IC50 against VIM-2) [µM] | IC50 (NDM-1 [2]) [µM] | Kd [3] [µM] | Ki (VIM-2 [4]) [µM] | logIC50 VIM-2 (VIM-2 [4]) [μM] | IC50 (VIM-2 [4]) [µM] | logIC50 GIM-1 (GIM-1 [5]) [μM] | IC50 (GIM-1 [5]) [µM] | Ki (NDM-1 [6]) [µM] | logIC50 NDM-1 (NDM-1 [6]) | IC50 (NDM-1 [6]) [µM] | CC50 at 24 h (MTT cytotoxicity assay; [9]) [µM] | CC50 at 24 h (MTT cytotoxicity assay; [10]) [µM] | main peak Area% kept in buffer for 1 month [7] [%] | main peak Area% right after dissolving in buffer [7] [%] | Mean chemical shift perturbation, VIM-2 (15N-labelled VIM-2) [ppm] | Ki (GIM-1 [8]) [µM] | IC50 (VIM-2 [1]; Table S8, ref 35 (SI), read-out: IC50 VIM-2) [µM] | IC50 (VIM-2 [1]; read-out: IC50 for VIM-2) [µM] | Mean chemical shift perturbation, NDM-1 (15N-labeled NDM-1) [ppm] |
| --- | --- | --- | --- | --- | --- | --- | --- | --- | --- | --- | --- | --- | --- | --- | --- | --- | --- | --- | --- | --- |
| O=C(O)CN(CC(=O)O)CP(=O)(O)O [N-(phosphonomethyl)-iminodiacetic acid] | 0.68 | 0.91 | 0.056 |  |  |  |  |  |  |  |  |  |  |  |  |  |  |  |  |  |
| O=C(Cc1cccs1)NC(c1ccccc1O)P(=O)(O)O (centres unmarked) [5i] |  |  |  | 76 ± 8 | 1.58 ± 0.08 | 38 | 2.28 ± 0.52 | 189 | 1070 ± 360 | 1.94 ± 0.08 log10(IC50/μM) | 87 | 1500 | 1490 | 97.58 | 96.45 | 0.04 | 348 ± 28 |  |  |  |
| NCCN[C@H]1CC[C@H](CC(=O)N[C@H]2Cc3cccc(C(=O)O)c3OB2O)CC1 [taniborbactam] |  |  |  |  |  |  |  |  |  |  |  |  |  |  |  |  |  | 0.002 | 0.04 |  |
| O=C(NC(c1ccccc1O)P(=O)(O)O)c1csc2c1CCCC2 (centres unmarked) [5f] |  |  |  | 40 ± 2 | 1.68 ± 0.05 | 48 | 1.71 ± 0.10 | 52 | 128 ± 58 | 1.48 ± 0.03 log10(IC50/μM) | 30 | 4800 | 4800 | 95.90 | 95.67 |  |  |  |  | 0.05 |

— publication PMC12009420, “Dynamically chiral phosphonic acid-type metallo-β-lactamase inhibitors” (Communications Chemistry, 2025)
